{
  "source": "paper PMC4546510",
  "about": "(ACS chemical biology, 2015)",
  "key": {"Cell viability assay": {"test": "Cell viability assay", "assay_type": "cell-based", "conditions": "human"}, "[1]": {"tested_on": "HCVsg 1b(con1)-Rluc replicon", "test": "microbe, parasite or virus in culture", "assay_type": "cell-based, hepatitis C virus genotype 1b (con1)", "conditions": "read-out: EC50 (concentration needed to reduce cellular HCVsg 1b(con1)-Rluc replicon content by 50%)"}, "[2]": {"tested_on": "HCVsg 1b(con1)-Rluc replicon", "assay_type": "cell-based, hepatitis C virus genotype 1b", "conditions": "combined with HPI; for Interaction with HPI (deviation from additive effects): Prichard & Shipman definitions; for Volume under the synergy plot (difference from Bliss additivity): MacSynergy II, 95% confidence"}, "[3]": {"biological_target": "full-length NS3 (helicase) (Hepatitis C virus genotype 1a, UniProt P26664)", "assay_type": "biochemical"}, "[4]": {"tested_on": "HCVsg 1b(con1) replicon harboring R155K", "conditions": "3 days"}, "scNS4A-NS3 V524A": {"tested_on": "scNS4A-NS3 V524A", "test": "NS3 depsipeptide cleavage", "assay_type": "biochemical, hepatitis C virus genotype 1a", "conditions": "Val524 mutation"}, "[5]": {"tested_on": "subgenomic dengue virus replicon (DENVsg 2)", "test": "Dengue virus subgenomic replicon assay in BHK-21 cells", "assay_type": "cell-based, dengue virus strain 2", "conditions": "Renilla luciferase-tagged replicon"}, "Huh7.5 cell viability": {"tested_on": "Huh7.5 cell viability", "test": "Cell viability assay", "assay_type": "cell-based"}, "HCVsg 2a(JFH1) replicon [6]": {"tested_on": "HCVsg 2a(JFH1) replicon", "test": "HCVsg 2a", "assay_type": "cell-based, hepatitis C virus genotype 2a (JFH1)", "conditions": "Renilla luciferase reporter"}, "[7]": {"biological_target": "recombinant full-length NS3 not fused to NS4A (Hepatitis C virus genotype 1a, UniProt P26664)", "test": "NS3 depsipeptide cleavage", "assay_type": "biochemical", "conditions": "in the presence and absence of NS4A"}, "[8]": {"tested_on": "HCVsg 1b(con1) replicon harboring the R155K and V36A mutations", "conditions": "3 days"}, "scNS4A-NS3 Q526A": {"tested_on": "scNS4A-NS3 Q526A", "test": "NS3 depsipeptide cleavage", "assay_type": "biochemical, hepatitis C virus genotype 1a"}, "[9]": {"tested_on": "BHK DENV-Rluc cell viability"}, "[10]": {"tested_on": "HCVsg 1b(con1)-Rluc replicon", "assay_type": "cell-based, hepatitis C virus genotype 1b"}, "HCVsg 2a(JFH1) replicon [11]": {"tested_on": "HCVsg 2a(JFH1) replicon", "test": "Colony formation assay, Huh7.5 cells with HCVsg 2a", "assay_type": "cell-based, hepatitis C virus genotype 2a", "conditions": "genotype 2a replicon, G418 selection"}, "scNS4A-NS3 H528A": {"tested_on": "scNS4A-NS3 H528A", "test": "NS3 depsipeptide cleavage", "assay_type": "biochemical, hepatitis C virus genotype 1a"}, "[12]": {"conditions": "Hepatitis C virus, Huh7.5, 72 h"}},
  "note": "Where two headings read alike, the source gives them in different places.",
  "data": [
    {"smiles": "CC(C)(C)NC(=O)N[C@H](C(=O)N1C[C@H]2[C@@H]([C@H]1C(=O)NC(CC1CCC1)C(=O)C(N)=O)C2(C)C)C(C)(C)C", "note": "(some centres unmarked) [Boceprevir]", "values": [
      {"measurement": "CC50", "setting": "Cell viability assay; replicon-bearing Huh7.5 cells", "result": "> 100", "unit": "µM"},
      {"measurement": "EC50", "setting": "[1]; [12]", "result": "0.64 ± 0.1", "unit": "µM"},
      {"measurement": "Interaction with HPI (deviation from additive effects)", "setting": "[2]", "result": "no significant deviations from additive effects"},
      {"measurement": "Inhibition of NS3 in an MBHA", "setting": "[3]", "result": "do not inhibit"}
    ]},
    {"smiles": "CC(C)(C)OC(=O)N[C@H]1CCCCC/C=C\\[C@@H]2C[C@@]2(C(=O)NS(=O)(=O)C2CC2)NC(=O)[C@@H]2C[C@@H](OC(=O)N3Cc4cccc(F)c4C3)CN2C1=O", "note": "[Danoprevir]", "values": [
      {"measurement": "CC50", "setting": "Cell viability assay", "result": 100, "unit": "µM"},
      {"measurement": "EC50", "setting": "[1]; [12]", "result": "0.002 ± 0.0005", "unit": "µM"},
      {"measurement": "Volume under the synergy plot (difference from Bliss additivity)", "setting": "[2]", "result": 17, "unit": "μM^2%"},
      {"measurement": "Interaction with HPI (deviation from additive effects)", "setting": "[2]", "result": "Minor, insignificant synergy"},
      {"measurement": "Inhibition of NS3 in an MBHA", "setting": "[3]; full-length NS3", "result": "do not inhibit"}
    ]},
    {"smiles": "C=C[C@@H]1C[C@]1(NC(=O)[C@@H]1C[C@@H]2CN1C(=O)[C@H](C(C)(C)C)NC(=O)O[C@@H]1C[C@H]1CCCCCc1nc3ccc(OC)cc3nc1O2)C(=O)NS(=O)(=O)C1CC1", "note": "[Grazoprevir]", "values": [
      {"measurement": "CC50", "setting": "Cell viability assay; replicon-bearing Huh7.5 cells", "result": "54 ± 5", "unit": "µM"},
      {"measurement": "EC50", "setting": "[1]; [12]", "result": "0.00076 ± 0.00013", "unit": "µM"},
      {"measurement": "Volume under the synergy plot (difference from Bliss additivity)", "setting": "[2]", "result": 101, "unit": "μM^2%"}
    ]},
    {"smiles": "Cc1ccc2nc(-c3ccc4nc(-c5ccc(NC(=O)c6cc(C(F)(F)F)cc(C(F)(F)F)c6)cc5)sc4c3)sc2c1S(=O)(=O)O.N", "note": "[HPI]", "values": [
      {"measurement": "Activity on telaprevir-resistant replicon versus HCVsg 1b(con1) replicon", "setting": "[4]", "result": "equally active"},
      {"measurement": "Effect of mutation on ability to inhibit NS3-catalyzed peptide cleavage", "setting": "scNS4A-NS3 V524A", "result": "do not affect"},
      {"measurement": "Antiviral activity on subgenomic dengue virus replicon", "setting": "[5]", "result": "no antiviral activity"},
      {"measurement": "Effect on viability of cells containing HCVsg 1b(con1) or HCVsg 2a(JFH1)", "setting": "Huh7.5 cell viability; concentrations up to 100 μM", "result": "did not affect the viability"},
      {"measurement": "CC50", "setting": "Huh7.5 cell viability; read-out: CC50 (concentration needed to reduce cell viability by 50%), Huh7.5 cells", "result": "> 100", "unit": "µM"},
      {"measurement": "Activity against the HCVsg 2a(JFH1) replicon", "setting": "HCVsg 2a(JFH1) replicon [6]", "result": "little activity"},
      {"measurement": "EC50", "setting": "[1]; Huh7.5 cells, 72 hours, relative to DMSO", "result": "15 ± 4", "unit": "µM"},
      {"measurement": "Amount needed to inhibit NS3-catalyzed peptide cleavage versus scNS4A-NS3", "setting": "[7]", "result": "considerably more HPI was needed"},
      {"measurement": "Activity on telaprevir-resistant replicon versus HCVsg 1b(con1) replicon", "setting": "[8]", "result": "equally active"},
      {"measurement": "Effect of substitution on ability to inhibit the NS3 protease", "setting": "scNS4A-NS3 Q526A", "result": "neither the Q526A nor H528A substitutions influenced"},
      {"measurement": "Effect on cell viability, dengue replicon cells", "setting": "[9]", "result": "no effect on cell viability"},
      {"measurement": "Change in sensitivity of the cell line to the compound after selection", "setting": "[10]; incubated with HPI twice as long as 3 weeks (6 weeks)", "result": "≤ 2", "unit": "fold"},
      {"measurement": "Sensitivity of cells that became resistant to telaprevir", "setting": "[10]; telaprevir-selected cells, data not shown", "result": "retained sensitivity"},
      {"measurement": "Antiviral activity in colony-formation assay", "setting": "HCVsg 2a(JFH1) replicon [11]", "result": "some antiviral activity"},
      {"measurement": "Effect of substitution on ability to inhibit the NS3 protease", "setting": "scNS4A-NS3 H528A", "result": "neither the Q526A nor H528A substitutions influenced"},
      {"measurement": "Inhibition of NS3 in an MBHA", "setting": "[3]; full-length NS3", "result": "inhibits full-length NS3 in an MBHA"},
      {"measurement": "IC50", "setting": "[3]; read-out: IC50, molecular beacon-based helicase assay, NS3-catalyzed DNA unwinding, normalized initial velocities", "result": "6 ± 2", "unit": "µM"}
    ]},
    {"smiles": "CCC[C@H](NC(=O)[C@@H]1[C@H]2CCC[C@H]2CN1C(=O)[C@@H](NC(=O)[C@@H](NC(=O)c1cnccn1)C1CCCCC1)C(C)(C)C)C(=O)C(=O)NC1CC1", "note": "[Telaprevir]", "values": [
      {"measurement": "CC50", "setting": "Cell viability assay; replicon-bearing Huh7.5 cells", "result": "45 ± 4", "unit": "µM"},
      {"measurement": "EC50", "setting": "[1]; [12]", "result": "0.81 ± 0.4", "unit": "µM"},
      {"measurement": "Sensitivity of cells that were incubated with HPI", "setting": "[10]; HPI-selected cells, data not shown", "result": "retained sensitivity"},
      {"measurement": "Resistance after incubation with the compound", "setting": "[10]; incubated with telaprevir for 3 weeks", "result": "became resistant"},
      {"measurement": "Interaction with HPI (deviation from additive effects)", "setting": "[2]", "result": "no significant deviations from additive effects"},
      {"measurement": "Inhibition of NS3 in an MBHA", "setting": "[3]", "result": "do not inhibit"}
    ]}
  ]
}
